# Earlier results as cited in patent publication US20180116920A1, “MULTI-STEP PROCESS FOR NO PRODUCTION” (BSN medical GmbH, priority 2015, published 2018).
# Tests used:
# [1] = generally assumed
compound,measurement,setting,value
nitrogen monoxide,maximum solubility of NO in aqueous solution,[1],approximately 2 mM
O=C1O[C@H]([C@@H](O)CO)C(O)=C1O [ascorbic acid],standard redox potential,at pH 7 and 25° C.,−0.04 V
N[C@@H](CS)C(=O)O [cysteine],redox potential,"cysteine-cystine, 25° C., pH 7.0",−0.2 Volt
